Experimental data from patent US20220008514A1, “COMBINED USE OF SELECTIVE SEROTONIN REUPTAKE INHIBITORS AND HEMATOPOIETIC GROWTH FACTORS FOR TREATING HEMATOPOIETIC DISEASES” (IMAGINE INSTITUT DES MALADIES GENETIQUES NECKER ENFANTS …, priority 2018, published 2022).

Columns and labels:
[1] = system: anemia after sub-lethal irradiation in WT mice; assay: Sub-lethal irradiation anemia model in WT mice, fluoxetine versus placebo (FIG. 5A, 5B); type: in vivo, mouse; conditions: fluoxetine for 7 days followed by sub-lethal irradiation
[2] = system: irradiation-induced cytopenia in WT C57BL/6 mice; assay: Sub-lethal irradiation-induced cytopenia in mice: SSRI, hematopoietic growth factor or both (FIG. 7, 8, 9, Table 1); type: in vivo, mouse; conditions: At Day 17 from sublethal irradiation
[3] = system: CD71+/TER119+ population in Tph1+/- mice; assay: Sub-lethal irradiation in Tph1+/- mice, fluoxetine versus placebo, erythroid precursor immunophenotyping (FIG. 5C, 5D); type: in vivo, mouse; conditions: starting on day 7 following sub-lethal irradiation, compared to placebo
[4] = system: chemotherapy induced aplasia; assay: Human cohort study: effect of SSRI on chemotherapy-induced aplasia after autologous HSCT (FIG. 6); type: in vivo; conditions: patients at the time of autologous HSCT after myeloablative chemotherapy, versus matched controls not under SSRI
From the text: FIG. 6. Human cohort study (effect of SSRI on chemotherapy induced aplasia). A reduced duration of aplasia is observed in patients treated with SSRI at the time of autologous HSCT (x), in comparison with the duration of aplasia observed for patients having not been under SSRI medication (+).
In order to evaluate the impact of treatment with SSRI on chemotherapy-induced aplasia, data of all patients benefiting from autologous hematopoietic stem cell transplantation (HSCT) from 2010 to 2017 in the hematology department of Necker Hospital, Paris, France were screened. Data from 22 patients who were under therapy with SSRI for usual indications at the time of autologous HSCT retrospectively reviewed, and compared with 66 control patients (3 controls per patient) matched for confounding factors (age, sex, disease, response of disease before therapy, conditioning regimen, date of transplant and number of CD34+ cells injected). It is observed a reduced duration of aplasia (a criterion of which, commonly described in the art, being a number of polynuclear neutrophils below 500/mm^3) in patients who were treated with SSRI at the time of autologous HSCT.

[5] = system: erythroid cells generated from CD34+ cord blood progenitor cells; assay: Human cord blood erythroid in vitro cell culture, erythroid proliferation (FIG. 3); type: cell-based; conditions: serum-free medium with EPO (2 mU/ml)+IL-3 (10 ng/ml)+SCF (50 ng/ml)
Experimental: FIG. 3. Human in vitro experiments (effect of 5-HT combined with EPO). To determine the role played by serotonin in erythroid proliferation, inventors used a well-defined culture system that closely mimics the proliferation and differentiation of erythroid precursors in vivo. […] Erythroid cells were generated from CD34^+ cord blood progenitor cells in serum-free medium in the presence of EPO (2 mU/ml)+IL-3 (10 ng/ml)+stem cell factor (SCF; 50 ng/ml). Throughout data are mean±SEM. Unpaired t-test and Pearson linear and non-linear regressions were used when appropriate. *P<0.05, **P<0.005, ***P<0.0005.
Erythroid cells were generated from CD34^+ cord blood progenitor cells in serum-free medium in the presence of EPO (2 mU/ml)+IL-3 (10 ng/ml)+stem cell factor (SCF; 50 ng/ml) as previously described in Zermati et al., (2000) Exp. Hematol. 28:885-894.

Row | SMILES | day of rapid and significant increase in the number of reticulocytes [1] [days] | day of normalization of Hb levels ([1]; placebo no normalization until day 22) [days] | % of mice with Hemoglobin level ≤8 g/dl [2] [%] | % of mice with Normal Hemoglobin level [2] [%] | % of mice with Normal neutrophil number [2] [%] | % of mice with Normal platelet level [2] [%] | CD71+/TER119+ population [3] | duration (length) of aplasia [4] | erythroid proliferation [5]
1 | CNCC[C@@H](Oc1ccc(C(F)(F)F)cc1)c1ccccc1 (racemic) [fluoxetine, (RS)-N-methyl-3-phenyl-3-propan-1-amine] | 3 | 11 | 100 | 0 | 20 | 0 | significant increase | considerably reduced by at least two days | –
2 | Cn1c2c(c3ccccc31)CCNCC2 [PNU 22394] | – | – | – | – | – | – | – | – | significantly enhances erythroid proliferation
3 | NCCc1c[nH]c2ccc(O)cc12 [5-HT, 5-hydroxytryptamine] | – | – | – | – | – | – | – | – | significantly enhances erythroid proliferation
